Reference: publication PMC12439480, “Dimeric CCK2R radiotheranostic tracers synergize with mTOR inhibition for enhanced tumor therapy” (Theranostics, 2025)
Numbered stars: 1 amine (or outer) side, 2 acyl side, 3 side chain; on linkers, the order of the positions; unused ones are H or OH. Square brackets hold non-standard residues; d marks the D form. Side chains are listed from the residue outwards. Peptide text beside a SMILES is read from it. * marks the point of attachment. DOTA = O=C(O)CN1CCN(CC(=O)O)CCN(CC(=O)*)CCN(CC(=O)O)CC1; d(γGlu) = O=C(O)[C@@H](CCC(=O)[*:2])N[*:1]; 1Nal = N[C@@H](Cc1cccc2ccccc12)C(=O)O; NMeNle = CCCC[C@H](NC)C(=O)O; PEG4 = NCCOCCOCCOCCOCCC(=O)O

Assay: Ex vivo biodistribution of 177Lu-labeled compound
Set-up: species or system BALB/c nude mice
Conditions: mouse, in vivo
Protocol: To evaluate the biodistribution of [^177Lu]Lu-DOTA-CCK2R-dimer, AR42J tumor-bearing mice received intravenous (i.v.) injections of 3.7 MBq (≈ 120 pmol) of [^177Lu]Lu-DOTA-CCK2R-dimer (dissolved in 200 μL of saline; n = 3/group), and Mice were sacrificed at 1, 4, 24, 48, 72, and 96 h post-injection. The tissues of interest were excised, weighed, and analyzed for radioactivity using a γ-counter.
All animal studies were approved by the Ethics Committee of Fudan University Shanghai Cancer Center (No. FUSCC-IACUC- S2023- 0003). Five-week-old female BALB/c nude mice were purchased from Shanghai SLAC Laboratory Animal
Company. To establish cell-derived xenograft (CDX) models, 1 × 10⁶ AR42J cells (100 μL) were subcutaneously inoculated into the right shoulder of each mouse. […]
Radioactivity levels were measured using a gamma counter, with decay correction applied based on the injection time. The percentage of injected dose per gram of tissue (%ID/g) was calculated for each time point. […]

For `CCCC[C@@H](C(=O)N[C@@H](CC(=O)O)C(=O)N[C@@H](Cc1cccc2ccccc12)C(N)=O)N(C)C(=O)[C@H](Cc1c[nH]c2ccccc12)NC(=O)CCOCCOCCOCCOCCNC(=O)CC[C@@H](NC(=O)CC[C@H](NC(=O)CN1CCN(CC(=O)O)CCN(CC(=O)O)CCN(CC(=O)O)CC1)C(=O)N[C@H](CCC(=O)NCCOCCOCCOCCOCCC(=O)N[C@@H](Cc1c[nH]c2ccccc12)C(=O)N(C)[C@@H](CCCC)C(=O)N[C@@H](CC(=O)O)C(=O)N[C@@H](Cc1cccc2ccccc12)C(N)=O)C(=O)O)C(=O)O` [[177Lu]Lu-DOTA-CCK2R-dimer, metal not drawn] ({DOTA}-E([d(γGlu)-PEG4-Trp-NMeNle-Asp-1Nal-NH2])[d(γGlu)][PEG4]W[NMeNle]D[1Nal]-NH2), the tissue uptake at 48 h (Bladder uptake) was 0.03 ± 0.01 %ID/g, the tissue uptake at 72 h (Bladder uptake) was 0.06 ± 0.03 %ID/g and the tissue uptake at 96 h (Bladder uptake) was 0.1 ± 0.05 %ID/g. The tissue uptake at 1 h (Blood uptake) was 6.93 ± 1.84 %ID/g, the tissue uptake at 4 h (Blood uptake) was 1.19 ± 0.3 %ID/g and the tissue uptake at 24 h (Blood uptake) was 0.05 ± 0.01 %ID/g. The tissue uptake at 48 h (Blood uptake) was 0.02 ± 0.01 %ID/g, the tissue uptake at 72 h (Blood uptake) was 0.002 ± 0.0005 %ID/g and the tissue uptake at 96 h (Blood uptake) was 0.008 ± 0.007 %ID/g. For the same compound, the tissue uptake at 1 h (Bone uptake) was 0.65 ± 0.27 %ID/g, the tissue uptake at 4 h (Bone uptake) was 0.35 ± 0.19 %ID/g and the tissue uptake at 24 h (Bone uptake) was 0.04 ± 0.02 %ID/g. For the same compound, the tissue uptake at 48 h (Bone uptake) was 0.004 ± 0.001 %ID/g, the tissue uptake at 72 h (Bone uptake) was 0.03 ± 0.02 %ID/g and the tissue uptake at 96 h (Bone uptake) was 0.02 ± 0.01 %ID/g. For the same compound, the tissue uptake at 1 h (Brain uptake) was 0.14 ± 0.01 %ID/g, the tissue uptake at 4 h (Brain uptake) was 0.03 ± 0.01 %ID/g and the tissue uptake at 24 h (Brain uptake) was 0.003 ± 0.002 %ID/g. For the same compound, the tissue uptake at 48 h (Brain uptake) was 0.003 ± 0.002 %ID/g, the tissue uptake at 72 h (Brain uptake) was 0.004 ± 0.003 %ID/g and the tissue uptake at 96 h (Brain uptake) was 0.006 ± 0.002 %ID/g. It also gave a tissue uptake at 1 h (Heart uptake) of 1.29 ± 0.41 %ID/g, a tissue uptake at 4 h (Heart uptake) of 0.67 ± 0.34 %ID/g and a tissue uptake at 24 h (Heart uptake) of 0.05 ± 0.03 %ID/g. It also gave a tissue uptake at 48 h (Heart uptake) of 0.02 ± 0.02 %ID/g, a tissue uptake at 72 h (Heart uptake) of 0.02 ± 0.008 %ID/g and a tissue uptake at 96 h (Heart uptake) of 0.03 ± 0.01 %ID/g. The tissue uptake at 1 h (Kidney uptake) was 8.92 ± 1.05 %ID/g, the tissue uptake at 4 h (Kidney uptake) was 6.79 ± 1.58 %ID/g and the tissue uptake at 24 h (Kidney uptake) was 3.43 ± 0.84 %ID/g. For the same compound, the tissue uptake at 48 h (Kidney uptake) was 1.59 ± 1 %ID/g, the tissue uptake at 72 h (Kidney uptake) was 1.6 ± 0.39 %ID/g and the tissue uptake at 96 h (Kidney uptake) was 1 ± 0.5 %ID/g. It also gave a tissue uptake at 1 h (Large intestine uptake) of 1.14 ± 0.38 %ID/g, a tissue uptake at 4 h (Large intestine uptake) of 0.61 ± 0.03 %ID/g and a tissue uptake at 24 h (Large intestine uptake) of 0.07 ± 0.01 %ID/g. For the same compound, the tissue uptake at 48 h (Large intestine uptake) was 0.05 ± 0.02 %ID/g, the tissue uptake at 72 h (Large intestine uptake) was 0.04 ± 0.03 %ID/g and the tissue uptake at 96 h (Large intestine uptake) was 0.05 ± 0.03 %ID/g. The tissue uptake at 1 h (Liver uptake) was 4.44 ± 1.8 %ID/g, the tissue uptake at 4 h (Liver uptake) was 3.42 ± 0.75 %ID/g and the tissue uptake at 24 h (Liver uptake) was 0.61 ± 0.11 %ID/g. The tissue uptake at 48 h (Liver uptake) was 0.58 ± 0.16 %ID/g, the tissue uptake at 72 h (Liver uptake) was 0.37 ± 0.05 %ID/g and the tissue uptake at 96 h (Liver uptake) was 0.42 ± 0.11 %ID/g. The tissue uptake at 1 h (Lung uptake) was 2.4 ± 0.05 %ID/g, the tissue uptake at 4 h (Lung uptake) was 1.06 ± 0.39 %ID/g and the tissue uptake at 24 h (Lung uptake) was 0.04 ± 0.03 %ID/g. It also gave a tissue uptake at 48 h (Lung uptake) of 0.02 ± 0.01 %ID/g, a tissue uptake at 72 h (Lung uptake) of 0.01 ± 0.01 %ID/g and a tissue uptake at 96 h (Lung uptake) of 0.02 ± 0.005 %ID/g. The tissue uptake at 1 h (Muscle uptake) was 0.36 ± 0.1 %ID/g, the tissue uptake at 4 h (Muscle uptake) was 0.16 ± 0.17 %ID/g and the tissue uptake at 24 h (Muscle uptake) was 0.01 ± 0.01 %ID/g. It also gave a tissue uptake at 48 h (Muscle uptake) of 0.007 ± 0.003 %ID/g, a tissue uptake at 72 h (Muscle uptake) of 0.007 ± 0.002 %ID/g and a tissue uptake at 96 h (Muscle uptake) of 0.006 ± 0.004 %ID/g. It also gave a tissue uptake at 1 h (Small intestine uptake) of 1.45 ± 0.39 %ID/g, a tissue uptake at 4 h (Small intestine uptake) of 0.58 ± 0.31 %ID/g and a tissue uptake at 24 h (Small intestine uptake) of 0.06 ± 0.04 %ID/g. The tissue uptake at 48 h (Small intestine uptake) was 0.06 ± 0.01 %ID/g, the tissue uptake at 72 h (Small intestine uptake) was 0.02 ± 0.01 %ID/g and the tissue uptake at 96 h (Small intestine uptake) was 0.04 ± 0.03 %ID/g. It also gave a tissue uptake at 1 h (Spleen uptake) of 2.62 ± 1.02 %ID/g, a tissue uptake at 4 h (Spleen uptake) of 2.23 ± 0.32 %ID/g and a tissue uptake at 24 h (Spleen uptake) of 0.15 ± 0.08 %ID/g. The tissue uptake at 48 h (Spleen uptake) was 0.02 ± 0.01 %ID/g, the tissue uptake at 72 h (Spleen uptake) was 0.05 ± 0.03 %ID/g and the tissue uptake at 96 h (Spleen uptake) was 0.15 ± 0.09 %ID/g. For the same compound, the tissue uptake at 1 h (Stomach uptake) was 3.88 ± 0.66 %ID/g, the tissue uptake at 4 h (Stomach uptake) was 3.05 ± 0.6 %ID/g and the tissue uptake at 24 h (Stomach uptake) was 1.07 ± 0.28 %ID/g. For the same compound, the tissue uptake at 48 h (Stomach uptake) was 1.04 ± 0.17 %ID/g, the tissue uptake at 72 h (Stomach uptake) was 0.26 ± 0.11 %ID/g and the tissue uptake at 96 h (Stomach uptake) was 0.24 ± 0.3 %ID/g. It also gave a tissue uptake at 1 h (Tumor uptake) of 19.2 ± 8.43 %ID/g, a tissue uptake at 4 h (Tumor uptake) of 14.7 ± 2.83 %ID/g and a tissue uptake at 24 h (Tumor uptake) of 6.12 ± 1.45 %ID/g. It also gave a tissue uptake at 48 h (Tumor uptake) of 4.32 ± 0.75 %ID/g, a tissue uptake at 72 h (Tumor uptake) of 2.01 ± 0.47 %ID/g and a tissue uptake at 96 h (Tumor uptake) of 1.1 ± 0.04 %ID/g.
